Test results taken from PubChem BioAssay AID248 (DTP/NCI, 2004).
Toxic doses and inconclusive results are not listed. No stated cut-off is given here; in the data, active means T/C of 150% or more; inactive means T/C below 125%.

Test system: L1210 leukemia ip in BDF1 mice, survival T/C
Test: NCI In Vivo Anticancer Drug Screen. Data for tumor model L1210 Leukemia (intraperitoneal) in B6D2F1 (BDF1) mice
Details: endpoint: mean survival time, higher = longer survival
Summary of the method: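 Mice bearing the transplanted tumor received compound or vehicle. Survival of the treated group was divided by that of the vehicle-treated control group to give the ratio.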

[1] = dose: 50.0 mg/kg/injection, schedule: Q01DX001 (ip), vehicle: saline
[2] = dose: 100.0 mg/kg/injection, schedule: Q01DX001 (ip), vehicle: saline
[3] = dose: 200.0 mg/kg/injection, schedule: Q01DX001 (ip), vehicle: saline
[4] = dose: 400.0 mg/kg/injection, schedule: Q01DX001 (ip), vehicle: saline
[5] = dose: 100.0 mg/kg/injection, schedule: Q04DX003 (ip), vehicle: saline
[6] = dose: 200.0 mg/kg/injection, schedule: Q04DX003 (ip), vehicle: saline
[7] = dose: 100.0 mg/kg/injection, schedule: Q04DX003 (ip), vehicle: Klucel (hydroxypropylcellulose) (HPC)

Measured: T/C

O=C(O)c1c(-c2ccccc2)oc(-c2ccccc2)c1C(=O)O
inactive: dose: 100.0 mg/kg/injection, schedule: Q04DX002 (ip), vehicle: saline 105 % of control | dose: 200.0 mg/kg/injection, schedule: Q04DX002 (ip), vehicle: saline 94 % of control

C=C1C(=O)O[C@@H]2/C=C(\C)CC/C=C(/C)CC[C@@H]12
inactive: [1] 101 % of control | [2] 86 % of control | [3] 93 % of control | [4] 86 % of control

COc1ccc(NCCC(O)CN2CCOCC2)cc1 (centres undefined)
inactive: [1] 100 % of control | [2] 94 % of control | [3] 119 % of control

O/N=C/c1nc2ccccc2[nH]1
inactive: dose: 75.0 mg/kg/injection, schedule: Q01DX001 (ip), vehicle: other 90 % of control | dose: 150.0 mg/kg/injection, schedule: Q01DX001 (ip), vehicle: other 90 % of control | dose: 300.0 mg/kg/injection, schedule: Q01DX001 (ip), vehicle: other 95 % of control

Cc1nnnn1C
inactive: [2] 95 % of control | [5] 105 % of control | [3] 108 % of control | [6] 107 % of control | [4] 97 % of control | dose: 400.0 mg/kg/injection, schedule: Q04DX003 (ip), vehicle: saline 88 % of control

C[N+](C)(C)CC(=O)[O-]
inactive: dose: 100.0 mg/kg/injection, schedule: Q01DX009 (ip), vehicle: saline 108 % of control | [5] 103 % of control | dose: 200.0 mg/kg/injection, schedule: Q01DX009 (ip), vehicle: saline 91 % of control | [6] 94 % of control

CC(=O)OC1CC(OC2C(O)CC(OC3C(O)CC(OC4CCC5(C)C(CCC6C5CCC5(C)C(C7=CC(=O)OC7)C(O)CC65O)C4)OC3C)OC2C)OC(C)C1OC1OC(CO)C(O)C(O)C1O (centres undefined)
inactive: dose: 12.5 mg/kg/injection, schedule: Q04DX003 (ip), vehicle: Klucel (hydroxypropylcellulose) (HPC) 97 % of control | dose: 25.0 mg/kg/injection, schedule: Q01DX001 (ip), vehicle: carboxymethylcellulose (CMC) 111 % of control | dose: 25.0 mg/kg/injection, schedule: Q04DX003 (ip), vehicle: Klucel (hydroxypropylcellulose) (HPC) 103 % of control | dose: 50.0 mg/kg/injection, schedule: Q01DX001 (ip), vehicle: carboxymethylcellulose (CMC) 105 % of control | dose: 50.0 mg/kg/injection, schedule: Q04DX003 (ip), vehicle: Klucel (hydroxypropylcellulose) (HPC) 112 % of control | [7] 97 % of control

N#CC(Cc1ccccc1)(c1ccccc1)c1ccccc1
inactive: [1] 112 % of control | [2] 114 % of control | [3] 89 % of control | [4] 97 % of control

C/C=C1\C(=O)C2CCC1C2 (centres undefined)
inactive: dose: 100.0 mg/kg/injection, schedule: Q01DX001 (ip), vehicle: carboxymethylcellulose (CMC) 93 % of control | dose: 200.0 mg/kg/injection, schedule: Q01DX001 (ip), vehicle: carboxymethylcellulose (CMC) 90 % of control | dose: 400.0 mg/kg/injection, schedule: Q01DX001 (ip), vehicle: carboxymethylcellulose (CMC) 95 % of control

CC(=O)Nc1ccc(OCCCCOc2ccccc2)cc1
inactive: dose: 100.0 mg/kg/injection, schedule: Q01DX009 (ip), vehicle: Klucel (hydroxypropylcellulose) (HPC) 87 % of control | [7] 103 % of control | dose: 200.0 mg/kg/injection, schedule: Q01DX009 (ip), vehicle: Klucel (hydroxypropylcellulose) (HPC) 97 % of control | dose: 200.0 mg/kg/injection, schedule: Q04DX003 (ip), vehicle: Klucel (hydroxypropylcellulose) (HPC) 100 % of control | dose: 400.0 mg/kg/injection, schedule: Q01DX009 (ip), vehicle: Klucel (hydroxypropylcellulose) (HPC) 92 % of control | dose: 400.0 mg/kg/injection, schedule: Q04DX003 (ip), vehicle: Klucel (hydroxypropylcellulose) (HPC) 97 % of control

O=C(/C=C\C=C\c1ccc2c(c1)OCO2)N1CCCCC1
inactive: dose: 50.0 mg/kg/injection, schedule: Q01DX009 (ip), vehicle: saline with Tween-80 105 % of control | dose: 100.0 mg/kg/injection, schedule: Q01DX009 (ip), vehicle: saline with Tween-80 105 % of control | dose: 200.0 mg/kg/injection, schedule: Q01DX009 (ip), vehicle: saline with Tween-80 105 % of control
